Patent US5270206A, “Enzymatic resolution of endo-bicyclo[2.2.1]heptan-2-ol and derived pharmaceutical agents” (Pfizer Inc., priority 1992, dated 1993)

How the values were obtained:
[1] = biological target: PDEIV; experiment: Inhibition of Pulmonary Phosphodiesterase (PDEIV); type: biochemical; conditions: guinea pig lung PDEIV, 1 μM [3H]-cAMP, 37° C., 10 minutes; read-out: IC50 (concentration inhibiting 50% of specific hydrolysis of [3H]cAMP to [3H]5'AMP)
Protocol: Lung tissue from guinea pigs was placed in a homogenization buffer solution (20 mM Bistris, 5 mM 2-mercaptoethanol, 2 mM benzamidine, 2 mM EDTA, 50 mM sodium acetate, pH 6.5) at a concentration of 10 ml/gm of tissue. The tissue was homogenized using a Tekmar Tissumizer at full speed for 10 seconds. Phenylmethylsulfonyl fluoride (PMSF, 50 mM in 2-propanol) was added to the buffer immediately prior to homogenization to give a final PMSF concentration of 50 μM. The homogenate was centrifuged at 12,000×g for 10 minutes at 4° C. The supernatant was filtered through gauze and glass wool and then applied to a 17×1.5 cm column of DEAE-Sepharose CL-6B, pre-equilibrated with homogenization buffer, at 4° C. A flow rate of 1 ml/min was used. After the supernatant had passed through the column, the column is washed with a volume of homogenization buffer at least two times that of the supernatant. […] Fractions were saved based on specific PDEIV activity, determined by [3H]cAMP hydrolysis and the ability of a […]. […]
The reaction tubes were shaken and placed in a water bath (37° C.) for 10 minutes, at which time the reaction was stopped by placing the tubes in a boiling water bath for 2 minutes. […] After vortexing, 1 ml of the elution was added to 3 ml Atomlight scintillation fluid in an appropriate vial, vortexed, and counted for [3H].
Percent inhibition is determined by the formula: [formula] […]

[2] = system: eosinophil migration into sensitized lung tissue; experiment: Inhibition of eosinophil migration into sensitized lung tissue challenged with antigen in guinea pigs (EPO response in lung lavage); type: in vivo, guinea pig; conditions: Cavia porcellus, po, guinea pigs sensitized with anti-OA IgG1, dosed P.O., ovalbumin aerosol, lung lavage after 18 hours, read-out: ED50 (inhibition of specific EPO response due to antigen challenge)
Protocol: Normal Hartley guinea pigs (300-350 grams) delivered from Charles River Laboratories were housed 5-7 days before sensitization. Guinea pigs were then sensitized with 0.5 mg/kg anti-OA IgGl or saline as control. After 48-72 hours, guinea pigs were dosed P.O. in groups of six animals each with compounds at up to 32 mg/kg using 2% Tween 80 as vehicle. After 1-1.5 hours the animals were injected i.p. with 5 mg/kg pyrilamine. Thirty minutes following pyrilamine administration, animals were exposed to 10 minutes of a 0.1% ovalbumin (OA) aerosol followed by a 15 minute cloud decay period in a Tri-R Airborne Infection Apparatus (Compression air flow=20 L/min, main air flow=8.4 L/min). Guinea pigs were removed from the apparatus and caged for 18 hours prior to sacrifice and the following lung lavage procedure. […]
The aliquoted sample with Triton was diluted with 1 ml PBS/0.1% Triton buffer (pH 7.0). […] The O.D. of the mixture was measured at 490 nm, with background O.D. (blank tube) subtracted out.
Duplicate O.D. readings were averaged to obtain a single value for each animal. Average O.D. +/- standard error is calculated using the six obtained values within each group of animals. Specific EPO response due to antigen challenge is calculated by: […]
Percent inhibition of specific EPO response due to drug pretreatment is calculated by: [formula]

[3] = system: antigen-induced skin edema; experiment: Inhibition of Skin Edema in Guinea Pigs Sensitized to Ovalbumin; type: in vivo, guinea pig; conditions: 32 mg/Kg oral, two guinea pigs, intradermal ovalbumin challenge one hour after dosing, read after twenty minutes
Protocol: Four guinea pigs (Hartley, male, 350-400 g) were sensitized with anti-ovalbumin IgGI antibody. Two guinea pigs were orally dosed with 32 mg/Kg of the test compound and two other guinea pigs were dosed with vehicle (2% Tween-80). One-hour after dosing, each guinea pig was injected intraveneously with 1 ml of Evan Blue (7 mg/ml) and then his skin was challenged intradermally with 0.1 ml of ovalbumin (0.1%) or PBS. Twenty minutes after challenge, the skin was removed and skin edematous site (circular blue spots at challenge sites) was examined visually.

[4] = system: phosphodiesterases prepared from cerebral cortices of rats; conditions: phosphodiesterases from rat cerebral cortices; noted at page 25 of W087/06576; cited from earlier work

IC50 [1]: 500 nM
SMILES: COc1ccc(C2CNC(=O)NC2)cc1O[C@H]1C[C@@H]2CC[C@H]1C2 (relative stereo) [5-(3-(exo-bicyclo[2.2.1]hept-2-yloxy)-4-methoxyphenyl)-3,4,5,6-tetrahydropyrimidin-2(1H)-one]
ED50 [2]: 10 mg/kg
intensity and area of blue spots (skin edema) at antigen-challenged sites vs vehicle-dosed animals [3]: markedly reduced
in vitro activity as an inhibitor of phosphodiesterases [4]: possesses in vitro activity as an inhibitor
